Measurements as given in patent US8158607B2, “Crystalline form of lamivudine” (Lupin Limited, priority 2006, dated 2012).

Assays:
[1] = Tablet dissolution in 0.1 N HCl, paddle; type: physicochemical; conditions: combination tablet, 50 rpm, 900 ml
[2] = Flow property (angle of repose); type: physicochemical; conditions: procedure of Lachman et al., page 317
[3] = background, U.S. Pat. No. 5,905,082; cited from earlier work
[4] = Polymorphic stability when slurried in water; type: physicochemical; conditions: slurried in water at ambient temperature for 24 to 48 hours
Procedure: A suspension of the Lamivudine form-II (5.0 gm) in water (5.0 ml) was stirred at 25° C. for 48 hours. The suspension was cooled and stirred at 10° C. for one hour. The product was filtered and then dried under vacuum at 45° C. for 24 hours. Yield=4.5 gms
A suspension of the Lamivudine form-I (2.0 gm) in water (2.0 ml) was stirred at 25° C. for 24 hours. The suspension was cooled and stirred at 10° C. for one hour. The product was filtered and then dried under vacuum at 45° C. for 24 hours. Yield=1.6 gms

[5] = Bulk density and tap density of crystal forms; type: physicochemical
From the text: The novel crystalline hemihydrate form (form III) of Lamivudine has better flow property and bulk density, which are important parameters for formulation (Table I). [table]

[6] = Storage stability at 40±2° C. RH 75±5%; type: physicochemical; conditions: stored at 40±2° C. RH 75±5%
[7] = Polymorphic stability during milling; type: physicochemical
Bioavailability = type: in vivo; conditions: compared with known forms

Row | SMILES | Dissolution (%) ([1]; 5 minutes) | Dissolution (%) ([1]; 10 minutes) | Dissolution (%) ([1]; 20 minutes) | Dissolution (%) ([1]; 30 minutes) | Dissolution (%) ([1]; 40 minutes) | Flow Property (Angle of Repose) [2] | Change of crystal form during milling and formulation operation [3] | Change of crystal form when slurried in water [4] | Bulk Density [5] | Tap Density [5] | Stability on storage [6] | Change in crystal structure during milling [7] | Bioavailability (Bioavailability)
1 | Cc1cn([C@H]2C[C@H](N=[N+]=[N-])[C@@H](CO)O2)c(=O)[nH]c1=O [Zidovudine] | 81.1% | 87.8% | 95.2% | 100.4% | 101.5% | – | – | – | – | – | – | – | –
2 | Nc1cc[n+](C2CSC(CO)O2)c(=O)[nH]1 (stereo not drawn) [Lamivudine, (2R-cis)-4-amino-1-[2-(hydroxymethyl)-1,3-oxathiolan-5-yl]-2(1H)-pyrimidinone] | 80.9% | 86.2% | 92.0% | 96.0% | 96.7% | – | – | – | – | – | – | – | –
3 | Nc1cc[n+](C2CSC(CO)O2)c(=O)[nH]1 (stereo not drawn) [Form I, (2R-cis)-4-amino-1-[2-(hydroxymethyl)-1,3-oxathiolan-5-yl]-2(1H)-pyrimidinone] | – | – | – | – | – | 33.66° | converts to form II | get converted to Form III | 0.46 gm/cc | 0.60 gm/cc | – | – | –
4 | Nc1cc[n+](C2CSC(CO)O2)c(=O)[nH]1 (stereo not drawn) [Form III, (2R-cis)-4-amino-1-[2-(hydroxymethyl)-1,3-oxathiolan-5-yl]-2(1H)-pyrimidinone] | – | – | – | – | – | 32.00° | – | – | 0.64 gm/cc | 0.83 gm/cc | stable for more than three months | does not undergo any change in crystal structure during milling | comparable bioavailability
5 | Nc1cc[n+](C2CSC(CO)O2)c(=O)[nH]1 (stereo not drawn) [Form II, (2R-cis)-4-amino-1-[2-(hydroxymethyl)-1,3-oxathiolan-5-yl]-2(1H)-pyrimidinone] | – | – | – | – | – | 32.00° | – | get converted to Form III | 0.38 gm/cc | 0.55 gm/cc | – | – | –
